Assay results published in patent US11214803B2, “Modulators of YAP1 expression” (Ionis Pharmaceuticals, Inc., priority 2019, dated 2022).
Strand notation (5' to 3'): a small letter for the sugar, then the base; units joined by * are phosphorothioate-linked, units joined directly phosphodiester-linked; [ ] holds rarer units or linkages, { } end groups; capitals alone tell only the bases. k = constrained ethyl (cEt); [5mC] = 5-methylcytosine; d = 2'-deoxy (DNA)

Test system: Yap1 mRNA
Test: Antisense inhibition of human Yap1 in A-431 cells by cEt gapmers, single dose (Example 2, RTS4814)
Format: cell-based
How it was run: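 A-431 cells (5,000/well) received 2,000 nM oligonucleotide by free uptake for about 48 h. Yap1 mRNA was then quantified by RT-qPCR with primer probe set RTS4814, normalized to RIBOGREEN total RNA, and reported as % of untreated control; asterisked values mark oligos inside the amplicon.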

[1] = Table 23, Yap1 mRNA as percent of untreated control, 3-10-3 cEt gapmers, single dose
[2] = Table 25, Yap1 mRNA as percent of untreated control, 3-10-3 cEt gapmers targeting SEQ ID NO.: 1, and 2
[3] = Table 32, Yap1 mRNA, percent of untreated control, 3-10-3 cEt gapmers targeting SEQ ID NO.: 1, and 2
[4] = Table 24, Yap1 mRNA as percent of untreated control, 3-10-3 cEt gapmers targeting SEQ ID NO.: 1, and 2
[5] = Table 5, A-431 cells, 5,000 cells per well, free uptake, 2,000 nM modified oligonucleotide, approx. 48 hours, RTS4814, normalized to RIBOGREEN, Yap1 mRNA relative to untreated control cells
[6] = Table 22, Yap1 mRNA as percent of untreated control, 3-10-3 cEt gapmers, single dose
[7] = Table 21, Yap1 mRNA, percent of untreated control, 3-10-3 cEt gapmers targeting SEQ ID NO.: 1 and 2
[8] = Yap1 mRNA as percent of untreated control, A-431 cells, 3-10-3 cEt gapmers targeting SEQ ID NO.: 1, and 2, Table 30

“1076329 (kA*kA*kT*dT*dA*dT*dA*d[5mC]*dT*dG*dG*d[5mC]*dT*kA*k[5mC]*kT; antisense) [Compound 1076329]” was tested, and the “YAP1 (% UTC)” value [1] was 14 % UTC.

For “1075243 (antisense k[5mC]*kT*kT*dA*dG*dT*dA*dA*dG*dA*dA*dT*dT*kG*kT*k[5mC]) [Compound 1075243]”, the “YAP1 (% UTC)” value [2] was 4 % UTC.

“1076211 (kA*kA*kT*dT*dT*dA*dT*dA*dT*dG*d[5mC]*dT*d[5mC]*k[5mC]*k[5mC]*kT; antisense) [compound 1076211]” was tested, and the “YAP1 (% UTC)” value (Table 33, Yap1 mRNA, percent of untreated control, 3-10-3 cEt gapmers targeting SEQ ID NO.: 1, and 2) was 22 % UTC.

With “1075115 (antisense kG*kT*kA*dT*dA*dG*d[5mC]*d[5mC]*dT*dT*dA*dT*dT*k[5mC]*kT*kT) [Compound 1075115]” the “YAP1 (% UTC)” value [2] was 6 % UTC.

“1074129 (k[5mC]*k[5mC]*k[5mC]*dG*dG*d[5mC]*dT*d[5mC]*d[5mC]*dA*d[5mC]*dT*dG*kG*kT*k[5mC]; antisense) [compound 1074129]” was tested, and the “YAP1 (% UTC)” value (Yap1 mRNA as percent of untreated control, A-431 cells, 3-10-3 cEt gapmers targeting SEQ ID NO.: 1, and 2, Table 31) was 77 % UTC.

With “1075666 (antisense kA*kA*kA*dT*dT*dT*dA*dG*dT*dT*dG*dT*dG*k[5mC]*kA*k[5mC]) [compound 1075666]” the “YAP1 (% UTC)” value [3] was 106 % UTC.

In the case of “1075954 (kA*kT*kT*dT*dA*dA*dG*dG*d[5mC]*dT*dG*dT*dG*kT*kT*k[5mC]; antisense) [compound 1075954]”, the “YAP1 (% UTC)” value [3] is reported as 50 % UTC.

With “1074730 (antisense kT*kA*kT*d[5mC]*dA*d[5mC]*dA*dG*dT*dA*d[5mC]*dT*dG*k[5mC]*kT*kA) [Compound 1074730]” the “YAP1 (% UTC)” value [4] was 46 % UTC.

With “1075690 (k[5mC]*kG*kT*dT*dA*dA*d[5mC]*dA*dA*d[5mC]*dT*dA*dT*kA*k[5mC]*kA; antisense) [Compound 1075690]” the “YAP1 (% UTC)” value [4] was 33 % UTC.

For “716437 (k[5mC]*k[5mC]*kA*dG*dT*dA*dA*dA*dT*d[5mC]*dA*dT*dG*kT*kT*kT; antisense) [Compound 716437]”, the “YAP1 (% UTC)” value [5] was 41 % UTC.

For “1075560 (kG*k[5mC]*kT*dA*dA*dA*dT*dA*dA*dA*dG*dG*dT*kT*kA*k[5mC]; antisense) [Compound 1075560]”, the “YAP1 (% UTC)” value [6] was 86 % UTC.

For “1075559 (kG*kA*kT*dA*dT*dT*dA*dA*dG*dG*dT*dG*dG*k[5mC]*kT*kT; antisense) [Compound 1075559]”, the “YAP1 (% UTC)” value [7] was 24 % UTC.

With “1075112 (antisense kA*kT*kA*dT*dA*dG*dG*dA*dA*dT*dA*dT*dG*kG*kG*kT) [Compound 1075112]” the “YAP1 (% UTC)” value [6] was 6 % UTC.

For “1075152 (kT*kA*kT*dA*dA*dT*dG*dG*dG*dA*dG*dG*dA*kT*kT*kA; antisense) [compound 1075152]”, the “YAP1 (% UTC)” value [8] was 99 % UTC.

For “716575 (kA*kA*kA*dG*dA*dA*d[5mC]*dT*dT*dA*dG*dT*dT*k[5mC]*k[5mC]*k[5mC]; antisense) [Compound 716575]”, the “YAP1 (% UTC)” value [5] was 84 % UTC.

In the case of “1075272 (antisense kA*kA*kT*dT*dA*dG*d[5mC]*d[5mC]*dA*dG*d[5mC]*dA*dT*kG*k[5mC]*kA) [Compound 1075272]”, the “YAP1 (% UTC)” value [6] is reported as 110 % UTC.

In the case of “1076039 (kG*kA*kT*dT*dA*dG*dA*dG*d[5mC]*dT*dG*dT*dA*kT*kT*k[5mC]; antisense) [Compound 1076039]”, the “YAP1 (% UTC)” value [7] is reported as 29 % UTC.

With “716469 (kG*kT*kT*dT*dG*d[5mC]*dT*d[5mC]*d[5mC]*dT*dT*dT*d[5mC]*k[5mC]*kA*kA; antisense) [Compound 716469]” the “YAP1 (% UTC)” value (A-431 cells, 5,000 cells per well, free uptake, 2,000 nM modified oligonucleotide, approx. 48 hours, RTS4814, normalized to RIBOGREEN, Table 4, asterisk (*) = targets amplicon region of primer probe set) was 25 % UTC.

With “1076560 (kT*k[5mC]*k[5mC]*dA*dA*dA*dT*dA*dT*dG*dG*d[5mC]*dA*kT*kA*k[5mC]; antisense) [compound 1076560]” the “YAP1 (% UTC)” value [8] was 10 % UTC.

For “1074600 (antisense k[5mC]*kA*kG*d[5mC]*dT*dA*dA*d[5mC]*dT*d[5mC]*dA*dA*dA*kA*k[5mC]*k[5mC]) [Compound 1074600]”, the “YAP1 (% UTC)” value [6] was 29 % UTC.

In the case of “1076360 (k[5mC]*kT*kA*dT*dT*dT*dA*dT*d[5mC]*d[5mC]*dT*dA*dG*kT*kT*kA; antisense) [Compound 1076360]”, the “YAP1 (% UTC)” value [6] is reported as 59 % UTC.

For “1076105 (kT*kA*k[5mC]*dG*dA*dA*dA*dT*dA*dG*dT*dA*dA*k[5mC]*kT*kG; antisense) [Compound 1076105]”, the “YAP1 (% UTC)” value [1] was 13 % UTC.
